Experimental data as given in patent publication US20260297081A1, “COMPOUNDS AND METHODS OF TREATING CANCERS” (Cullgen Inc., priority 2023, published 2026).

Target: CDK4 (Homo sapiens, UniProt P11802+Q16531)
Assay: HiBiT detection of HiBiT-tagged CDK4 protein level in MCF7 cells, 16 hours (Table 8)
Format: cell-based
Set-up: expressed in transfected cells; host or cells: MCF7
Settings: MCF7 cells stably expressing HiBiT tagged target proteins; for activity at 0.01 µM: 10 nM, read-out: % CDK4 Relative Level (10 nM); for activity at 0.1 µM: 100 nM, read-out: % CDK4 Relative Level (100 nM)
Description: HiBiT detection system quantitatively measures total amounts of HiBiT-tagged proteins using a luminescent based method. MCF7 cells stably expressing HiBiT tagged target proteins were treated with heterobifunctional compounds at indicated concentrations for 16 hours, then lysed with Nano-Glo HiBiT Lytic detection reagents.

Sequence of CDK4 (P11802 whole entry): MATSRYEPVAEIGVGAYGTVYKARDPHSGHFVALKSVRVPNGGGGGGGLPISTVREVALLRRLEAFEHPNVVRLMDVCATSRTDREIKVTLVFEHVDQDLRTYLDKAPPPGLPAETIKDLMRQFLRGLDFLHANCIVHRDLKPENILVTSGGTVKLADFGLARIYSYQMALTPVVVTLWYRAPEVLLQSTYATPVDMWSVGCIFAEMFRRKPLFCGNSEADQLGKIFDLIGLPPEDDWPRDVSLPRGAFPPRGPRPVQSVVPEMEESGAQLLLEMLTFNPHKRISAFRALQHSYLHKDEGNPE
Sequence of CDK4 (P24385 whole entry partner): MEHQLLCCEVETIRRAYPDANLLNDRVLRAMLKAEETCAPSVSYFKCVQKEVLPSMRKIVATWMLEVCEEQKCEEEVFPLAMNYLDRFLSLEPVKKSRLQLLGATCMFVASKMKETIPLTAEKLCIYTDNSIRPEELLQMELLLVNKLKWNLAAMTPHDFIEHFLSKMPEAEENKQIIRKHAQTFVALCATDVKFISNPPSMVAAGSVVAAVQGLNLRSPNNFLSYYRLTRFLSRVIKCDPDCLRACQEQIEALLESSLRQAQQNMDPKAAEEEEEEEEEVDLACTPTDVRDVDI
Sequence of CDK4 (Q16531 2-1140 limits assumed): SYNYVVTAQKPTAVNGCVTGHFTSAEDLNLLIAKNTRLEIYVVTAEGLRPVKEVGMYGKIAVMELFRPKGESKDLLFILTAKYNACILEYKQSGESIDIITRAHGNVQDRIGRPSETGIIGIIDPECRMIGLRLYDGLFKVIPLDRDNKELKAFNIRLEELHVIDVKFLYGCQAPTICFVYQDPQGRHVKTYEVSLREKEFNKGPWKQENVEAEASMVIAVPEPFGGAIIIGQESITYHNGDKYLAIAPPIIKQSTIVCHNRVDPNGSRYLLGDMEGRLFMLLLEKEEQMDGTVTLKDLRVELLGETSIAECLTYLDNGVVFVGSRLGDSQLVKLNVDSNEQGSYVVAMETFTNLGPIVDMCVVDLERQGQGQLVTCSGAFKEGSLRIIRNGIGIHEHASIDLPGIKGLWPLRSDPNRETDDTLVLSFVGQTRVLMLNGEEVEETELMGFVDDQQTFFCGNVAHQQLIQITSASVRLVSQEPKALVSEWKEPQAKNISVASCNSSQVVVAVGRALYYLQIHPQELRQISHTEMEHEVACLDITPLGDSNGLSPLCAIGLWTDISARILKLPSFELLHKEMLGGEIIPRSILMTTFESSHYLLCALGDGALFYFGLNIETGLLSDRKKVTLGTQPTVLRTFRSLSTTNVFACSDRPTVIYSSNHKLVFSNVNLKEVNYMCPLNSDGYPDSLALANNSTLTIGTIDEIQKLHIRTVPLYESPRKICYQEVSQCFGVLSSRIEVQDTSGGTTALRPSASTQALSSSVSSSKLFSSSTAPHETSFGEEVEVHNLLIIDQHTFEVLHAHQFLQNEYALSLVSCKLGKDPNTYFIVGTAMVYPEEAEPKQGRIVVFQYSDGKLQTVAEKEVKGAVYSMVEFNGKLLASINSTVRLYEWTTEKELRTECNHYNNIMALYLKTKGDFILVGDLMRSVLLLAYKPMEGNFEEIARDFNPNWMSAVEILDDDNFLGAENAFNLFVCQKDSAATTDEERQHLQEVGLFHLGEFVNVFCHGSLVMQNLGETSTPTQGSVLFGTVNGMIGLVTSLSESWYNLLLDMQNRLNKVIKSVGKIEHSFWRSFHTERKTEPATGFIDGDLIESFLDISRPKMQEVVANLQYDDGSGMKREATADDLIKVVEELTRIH

activity at 0.01 µM | activity at 0.1 µM | Compound
> 85% | > 85% | CNc1ccc(C(=O)Nc2ccc(N(C)C)nn2)c(NCCCCCCC(=O)N2CCN(c3ccc(Nc4ncc(F)c(-c5cc(F)c6nc(C)n(C(C)C)c6c5)n4)nc3)CC2)n1 [CPD-652, N-(6-(dimethylamino)pyridazin-3-yl)-2-((7-(4-(6-((5-fluoro-4-(4-fluoro-1-isopropyl-2-methyl-1H-benzo[d]imidazol-6-yl)pyrimidin-2-yl)amino)pyridin-3-yl)piperazin-1-yl)-7-oxoheptyl)amino)-6-(methylamino)nicotinamide]
> 85% | > 85% | CNc1ccc(C(=O)Nc2ccc(N(C)C)nn2)c(NCCCCCCCC(=O)N2CCN(c3ccc(Nc4ncc(F)c(-c5cc(F)c6nc(C)n(C(C)C)c6c5)n4)nc3)CC2)n1 [CPD-653, N-(6-(dimethylamino)pyridazin-3-yl)-2-((8-(4-(6-((5-fluoro-4-(4-fluoro-1-isopropyl-2-methyl-1H-benzo[d]imidazol-6-yl)pyrimidin-2-yl)amino)pyridin-3-yl)piperazin-1-yl)-8-oxooctyl)amino)-6-(methylamino)nicotinamide]
> 85% | > 85% | CNc1ccc(C(=O)Nc2ccc(N(C)C)nn2)c(NCCCNC(=O)CN2CCN(c3ccc(Nc4ncc5cc6n(c5n4)C4(CCCCC4)CNC6=O)nc3)CC2)n1 [CPD-641, N-(6-(dimethylamino)pyridazin-3-yl)-6-(methylamino)-2-((3-(2-(4-(6-((6′-oxo-7′,8′-dihydro-6′H-spiro[cyclohexane-1,9′-pyrazino[1′,2′:1,5]pyrrolo[2,3-d]pyrimidin]-2′-yl)amino)pyridin-3-yl)piperazin-1-yl)acetamido)propyl)amino)nicotinamide]
> 85% | > 85% | CNc1ccc(C(=O)Nc2ccc(N(C)C)nn2)c(NCCCCCCNC(=O)CN2CCN(c3ccc(Nc4ncc(F)c(-c5cc(F)c6nc(C)n(C(C)C)c6c5)n4)nc3)CC2)n1 [CPD-662, N-(6-(dimethylamino)pyridazin-3-yl)-2-((6-(2-(4-(6-((5-fluoro-4-(4-fluoro-1-isopropyl-2-methyl-1H-benzo[d]imidazol-6-yl)pyrimidin-2-yl)amino)pyridin-3-yl)piperazin-1-yl)acetamido)hexyl)amino)-6-(methylamino)nicotinamide]
> 85% | > 85% | CNc1ccc(C(=O)Nc2ccc(N(C)C)nn2)c(NCC(=O)N2CCN(Cc3ccc(Nc4ncc(F)c(-c5cc(F)c6nc(C)n(C(C)C)c6c5)n4)nc3)CC2)n1 [CPD-656, N-(6-(dimethylamino)pyridazin-3-yl)-2-((2-(4-((6-((5-fluoro-4-(4-fluoro-1-isopropyl-2-methyl-1H-benzo[d]imidazol-6-yl)pyrimidin-2-yl)amino)pyridin-3-yl)methyl)piperazin-1-yl)-2-oxoethyl)amino)-6-(methylamino)nicotinamide]
> 85% | 55 to 85% | CNc1ccc(C(=O)Nc2ccc(N(C)C)nn2)c(NCCNC(=O)CN2CCN(c3ccc(Nc4ncc5cc6n(c5n4)C4(CCCCC4)CNC6=O)nc3)CC2)n1 [CPD-640, N-(6-(dimethylamino)pyridazin-3-yl)-6-(methylamino)-2-((2-(2-(4-(6-((6′-oxo-7′,8′-dihydro-6′H-spiro[cyclohexane-1,9′-pyrazino[1′,2′:1,5]pyrrolo[2,3-d]pyrimidin]-2′-yl)amino)pyridin-3-yl)piperazin-1-yl)acetamido)ethyl)amino)nicotinamide]
> 85% | 55 to 85% | CNc1ccc(C(=O)Nc2ccc(N(C)C)nn2)c(NCCCCCCCNC(=O)CN2CCN(c3ccc(Nc4ncc(F)c(-c5cc(F)c6nc(C)n(C(C)C)c6c5)n4)nc3)CC2)n1 [CPD-663, N-(6-(dimethylamino)pyridazin-3-yl)-2-((7-(2-(4-(6-((5-fluoro-4-(4-fluoro-1-isopropyl-2-methyl-1H-benzo[d]imidazol-6-yl)pyrimidin-2-yl)amino)pyridin-3-yl)piperazin-1-yl)acetamido)heptyl)amino)-6-(methylamino)nicotinamide]
> 85% | > 85% | CNc1ccc(C(=O)Nc2ccc(N(C)C)nn2)c(NCCOCCOCCC(=O)N2CCN(c3ccc(Nc4ncc(F)c(-c5cc(F)c6nc(C)n(C(C)C)c6c5)n4)nc3)CC2)n1 [CPD-655, N-(6-(dimethylamino)pyridazin-3-yl)-2-((2-(2-(3-(4-(6-((5-fluoro-4-(4-fluoro-1-isopropyl-2-methyl-1H-benzo[d]imidazol-6-yl)pyrimidin-2-yl)amino)pyridin-3-yl)piperazin-1-yl)-3-oxopropoxy)ethoxy)ethyl)amino)-6-(methylamino)nicotinamide]
> 85% | > 85% | CNc1ccc(C(=O)Nc2ccc(N(C)C)nn2)c(NCCOCCNC(=O)CN2CCN(c3ccc(Nc4ncc5cc(C(=O)N(C)C)n(C6CCCC6)c5n4)nc3)CC2)n1 [CPD-631, 7-cyclopentyl-2-((5-(4-(2-((2-(2-((3-((6-(dimethylamino)pyridazin-3-yl)carbamoyl)-6-(methylamino)pyridin-2-yl)amino)ethoxy)ethyl)amino)-2-oxoethyl)piperazin-1-yl)pyridin-2-yl)amino)-N,N-dimethyl-7H-pyrrolo[2,3-d]pyrimidine-6-carboxamide]
> 85% | > 85% | CNc1ccc(C(=O)Nc2ccc(N(C)C)nn2)c(NCCOCCC(=O)N2CCN(Cc3ccc(Nc4ncc(F)c(-c5cc(F)c6nc(C)n(C(C)C)c6c5)n4)nc3)CC2)n1 [CPD-606, N-(6-(dimethylamino)pyridazin-3-yl)-2-((2-(3-(4-((6-((5-fluoro-4-(4-fluoro-1-isopropyl-2-methyl-1H-benzo[d]imidazol-6-yl)pyrimidin-2-yl)amino)pyridin-3-yl)methyl)piperazin-1-yl)-3-oxopropoxy)ethyl)amino)-6-(methylamino)nicotinamide]

The remaining lines, values behind:

Compound | activity at 0.01 µM | activity at 0.1 µM
CNc1ccc(C(=O)Nc2ccc(N(C)C)nn2)c(NCCOCCC(=O)NC2CCC3(CC2)CC(Nc2ncc4ccc(=O)n(C5CCCC5)c4n2)C3)n1 (stereo not shown) [CPD-679, 2-((2-(3-((2-((8-cyclopentyl-7-oxo-7,8-dihydropyrido[2,3-d]pyrimidin-2-yl)amino)spiro[3.5]nonan-7-yl)amino)-3-oxopropoxy)ethyl)amino)-N-(6-(dimethylamino)pyridazin-3-yl)-6-(methylamino)nicotinamide] | > 85% | > 85%
CNc1ccc(C(=O)Nc2ccc(N(C)C)nn2)c(NCCCCCCC(=O)NC2CCC(Nc3ncc4ccc(=O)n(C5CCCC5)c4n3)CC2)n1 (stereo not shown) [CPD-670, 2-((7-((4-((8-cyclopentyl-7-oxo-7,8-dihydropyrido[2,3-d]pyrimidin-2-yl)amino)cyclohexyl)amino)-7-oxoheptyl)amino)-N-(6-(dimethylamino)pyridazin-3-yl)-6-(methylamino)nicotinamide] | > 85% | > 85%
CNc1ccc(C(=O)Nc2ccc(N(C)C)nn2)c(NCCCC(=O)NC2CCC3(CC2)CC(Nc2ncc4ccc(=O)n(C5CCCC5)c4n2)C3)n1 (stereo not shown) [CPD-674, 2-((4-((2-((8-cyclopentyl-7-oxo-7,8-dihydropyrido[2,3-d]pyrimidin-2-yl)amino)spiro[3.5]nonan-7-yl)amino)-4-oxobutyl)amino)-N-(6-(dimethylamino)pyridazin-3-yl)-6-(methylamino)nicotinamide] | > 85% | > 85%
CNc1ccc(C(=O)Nc2ccc(N(C)C)nn2)c(NCCCCCC(=O)NC2CCC3(CC2)CC(Nc2ncc4ccc(=O)n(C5CCCC5)c4n2)C3)n1 (stereo not shown) [CPD-676, 2-((6-((2-((8-cyclopentyl-7-oxo-7,8-dihydropyrido[2,3-d]pyrimidin-2-yl)amino)spiro[3.5]nonan-7-yl)amino)-6-oxohexyl)amino)-N-(6-(dimethylamino)pyridazin-3-yl)-6-(methylamino)nicotinamide] | > 85% | > 85%
CCc1ccc(C(=O)Nc2ccc(N(C)C)nn2)c(NC2CC3(CC(NC(=O)CN4CCN(Cc5ccc(Nc6ncc7c(C)c(C(C)=O)c(=O)n(C8CCCC8)c7n6)nc5)CC4)C3)C2)c1 (stereo not shown) [CPD-598, 2-((6-(2-(4-((6-((6-acetyl-8-cyclopentyl-5-methyl-7-oxo-7,8-dihydropyrido[2,3-d]pyrimidin-2-yl)amino)pyridin-3-yl)methyl)piperazin-1-yl)acetamido)spiro[3.3]heptan-2-yl)amino)-N-(6-(dimethylamino)pyridazin-3-yl)-4-ethylbenzamide] | 55 to 85% | > 85%
CNc1ccc(C(=O)Nc2ccc(N(C)C)nn2)c(NCCOCCC(=O)NC2CCC(Nc3ncc4ccc(=O)n(C5CCCC5)c4n3)CC2)n1 (stereo not shown) [CPD-672, 2-((2-(3-((4-((8-cyclopentyl-7-oxo-7,8-dihydropyrido[2,3-d]pyrimidin-2-yl)amino)cyclohexyl)amino)-3-oxopropoxy)ethyl)amino)-N-(6-(dimethylamino)pyridazin-3-yl)-6-(methylamino)nicotinamide] | > 85% | > 85%
CC(C)Nc1ccc(C(=O)Nc2ccc(N(C)C)nn2)c(NC2CC3(C2)CN(C(=O)CN2CCN(Cc4ccc(Nc5ncc6cc(C(=O)N(C)C)n(C7CCCC7)c6n5)nc4)CC2)C3)n1 [CPD-563, 7-cyclopentyl-2-((5-((4-(2-(6-((3-((6-(dimethylamino)pyridazin-3-yl)carbamoyl)-6-(isopropylamino)pyridin-2-yl)amino)-2-azaspiro[3.3]heptan-2-yl)-2-oxoethyl)piperazin-1-yl)methyl)pyridin-2-yl)amino)-N,N-dimethyl-7H-pyrrolo[2,3-d]pyrimidine-6-carboxamide] | > 85% | > 85%
